Test results: US20110152267A1, “Compositions and Methods for Treating Hyperproliferative Disorders” (Texas Tech University System, priority 2009, published 2011)

Legend:
Type in all cases: cell-based, human
[1] = system: RPMI-8226 Multiple Myeloma cell line; assay: DIMSCAN cytotoxicity, fenretinide + L-threo-sphinganines 3:1 (Example B2); conditions: 96 h
Experimental: (§1) Cytotoxicity Assay—Once again, cytotoxicity is determined using the DIMSCAN assay system (R. Proffitt et al., Cytometry 24, 204-213 (1996); T. Frgala et al., Mol Cancer Ther. 6:886-97, 2007). The system employs digital imaging microscopy to quantify viable cells, which selectively accumulate fluorescein diacetate to become brightly fluorescent. The system is capable of measuring cytotoxicity over a 4-5 log dynamic range by quenching the residual fluorescence of dead and dying cells with eosin Y and quantifying the total fluorescence of viable cells using digital thresholding. Measured fluorescence is directly proportionate to the number of viable cells. A comparison of the total fluorescence of a drug-treated cell population to the fluorescence of a similar number of untreated cells yields a survival fraction. In brief, 2000 to 10,000 cells/well (depending on size and growth rates) are replicate plated into 60 wells of a 96-well tissue culture plate in 0.1 mL of whole medium and allowed to attach overnight. Drug(s) are then added in 0.05 mL of whole medium to the final concentrations indicated. Drugs (fenretinide, and various chain length L-threo-sphinganines) were tested both as single agents and in a 3:1 ratio of fenretinide:sphinganine. C18-L-threo-sphinganine, or “safingol,” was also tested and results shown for reference. There are 12 wells treated per drug concentration. Twelve wells receive drug vehicle-only to the appropriate final concentration and serve as controls for the plate. Cells are incubated for 96 hours at 37° C. in ambient air with 5% CO2. Fluorescein diacetate is then added to each well in 0.05 mL media to a final concentration of 8 microgram/mL. Cells are incubated for a further 15 minutes at 37° C. and 0.03 mL of 0.5% eosin Y is added to each well. Total fluorescence of viable cells is then measured by digital imaging microscopy. Results were graphed as the ratio of the fluoresecence of drug-treated wells to non-drug treated control wells (i.e., Survival Fraction). All tests were performed at least twice. Representative results are shown.
(§2) The Combination Index (CI) is a term to describe mathematical modeling of the pharmacologic effects on cytotoxicity (cell death) of two drugs in combination based. Cytotoxic “synergy” is defined as a cell death affect which is greater than would be expected from a simple product of the single agent cytotoxicities alone (i.e. an “additive” effect). By Chou-Talalay analysis, a CI<0.9 on a Fraction Affected (“Fa”, i.e. fraction of cells killed) indicates synergy, with smaller numbers indicating greater synergy; a CI of 0.9-1.1 signifies an additive or near-additive effect; and a CI>1.1 means the drug combination is antagonistic.
Fenretinide and L-threo-sphinganines tested in human Multiple Myeloma (a cancer of the blood and bone marrow) cell line, RPMI-8226.

[2] = system: U-266 Multiple Myeloma cell line; assay: DIMSCAN cytotoxicity, fenretinide + L-threo-sphinganines 3:1 (Example B3); conditions: 96 h
Experimental: as §1, §2
Fenretinide and L-threo-sphinganines tested in human Multiple Myeloma (a cancer of the blood and bone marrow) cell line, U-266.

[3] = system: A-172 Glioblastoma multiforme cell line; assay: DIMSCAN cytotoxicity, fenretinide + L-threo-sphinganines 3:1 (Example B4); set-up: key to CI (Combination Index): Chou-Talalay CI: <0.9 synergy, 0.9-1.1 additive, >1.1 antagonism; conditions: 96 h
Experimental: as §1, §2
Fenretinide and L-threo-sphinganines tested in human Glioblastoma multiforme (brain cancer) cell line, A-172.

[4] = system: T98G Glioblastoma multiforme cell line; assay: DIMSCAN cytotoxicity, fenretinide + L-threo-sphinganines 3:1 (Example B6); conditions: 96 h
Experimental: as §1, §2
Fenretinide and L-threo-sphinganines tested in human Glioblastoma multiforme (brain cancer) cell line, T98G.

[5] = system: SJ-GBM2 Glioblastoma multiforme cell line; assay: DIMSCAN cytotoxicity, fenretinide + L-threo-sphinganines 3:1 (Example B7); set-up: key to CI (Combination Index): Chou-Talalay CI: <0.9 synergy, 0.9-1.1 additive, >1.1 antagonism; conditions: 96 h
Experimental: as §1, §2
Fenretinide and L-threo-sphinganines tested in human Glioblastoma multiforme (brain cancer) cell line, SJ-GBM2.

[6] = system: SJ-G2 Glioblastoma cell line; assay: DIMSCAN cytotoxicity, fenretinide + L-threo-sphinganines 3:1 (Example B8); conditions: 96 h
Experimental: as §1, §2
Fenretinide and L-threo-sphinganines tested in human Glioblastoma (brain cancer) cell line, SJ-G2.

[7] = system: PC-3 prostate adenocarcinoma cell line; assay: DIMSCAN cytotoxicity, fenretinide + L-threo-sphinganines 3:1 (Example B17)
Experimental: as §1, §2
Fenretinide and L-threo-sphinganines tested in human prostate adenocarcinoma (prostate cancer) cell line, PC-3.

[8] = system: PANC-1 pancreatic adenocarcinoma cell line; assay: DIMSCAN cytotoxicity, fenretinide + L-threo-sphinganines 3:1 (Example B18)
Experimental: as §1, §2
Fenretinide and L-threo-sphinganines tested in human pancreatic adenocarcinoma (pancreas cancer) cell line, PANC-1.

[9] = 4-HPR 1.5 μM + L-threo-sphinganine 0.5 μM
[10] = 4-HPR 3 μM + L-threo-sphinganine 1 μM
[11] = 4-HPR 6 μM + L-threo-sphinganine 2 μM
[12] = 4-HPR 9 μM + L-threo-sphinganine 3 μM

CCCCCCCCC[C@H](O)[C@@H](N)CO [C12]
CI (Combination Index) [1, 9]: 0.8
Fa (fraction affected) [1, 9]: 0.6
CI (Combination Index) [1, 10]: 1.0
Fa (fraction affected) [1, 10]: 0.757
CI (Combination Index) [1, 11]: 0.7
Fa (fraction affected) [1, 11]: 0.96
CI (Combination Index) [1, 12]: 0.5
Fa (fraction affected) [1, 12]: 0.988
CI (Combination Index) [2, 9]: 0.8
Fa (fraction affected) [2, 9]: 0.176
CI (Combination Index) [2, 10]: 0.9
Fa (fraction affected) [2, 10]: 0.326
CI (Combination Index) [2, 11]: 0.9
Fa (fraction affected) [2, 11]: 0.697
CI (Combination Index) [2, 12]: 1.2
Fa (fraction affected) [2, 12]: 0.748
CI (Combination Index) [3, 9]: 6.1
Fa (fraction affected) [3, 9]: 0.024
CI (Combination Index) [3, 10]: 4.4
Fa (fraction affected) [3, 10]: 0.065
CI (Combination Index) [3, 11]: 0.4
Fa (fraction affected) [3, 11]: 0.849
CI (Combination Index) [3, 12]: 0.2
Fa (fraction affected) [3, 12]: 0.981
CI (Combination Index) [4, 9]: 2.8
Fa (fraction affected) [4, 9]: 0.306
CI (Combination Index) [4, 10]: 3.6
Fa (fraction affected) [4, 10]: 0.408
CI (Combination Index) [4, 11]: 1.5
Fa (fraction affected) [4, 11]: 0.781
CI (Combination Index) [4, 12]: 0.2
Fa (fraction affected) [4, 12]: 0.981
CI (Combination Index) [5, 9]: 0.5
Fa (fraction affected) [5, 9]: 0.133
CI (Combination Index) [5, 10]: 0.7
Fa (fraction affected) [5, 10]: 0.271
CI (Combination Index) [5, 11]: 0.7
Fa (fraction affected) [5, 11]: 0.930
CI (Combination Index) [5, 12]: 0.9
Fa (fraction affected) [5, 12]: 0.968
CI (Combination Index) [6, 9]: 0.8
Fa (fraction affected) [6, 9]: 0.199
CI (Combination Index) [6, 10]: 0.7
Fa (fraction affected) [6, 10]: 0.530
CI (Combination Index) [6, 11]: 0.8
Fa (fraction affected) [6, 11]: 0.764
CI (Combination Index) [6, 12]: 0.6
Fa (fraction affected) [6, 12]: 0.931
CI [7, 9]: 0.5
Fa [7, 9]: 0.245
CI [7, 10]: 0.8
Fa [7, 10]: 0.328
CI [7, 11]: 0.9
Fa [7, 11]: 0.526
CI [7, 12]: 0.8
Fa [7, 12]: 0.721
CI [8, 9]: 0.9
Fa [8, 9]: 0.232
CI [8, 10]: 3.1
Fa [8, 10]: 0.119
CI [8, 11]: 0.7
Fa [8, 11]: 0.757
CI [8, 12]: 0.2
Fa [8, 12]: 0.977
